The NIST ThermoML archive (doi:10.1016/j.jct.2015.06.005)
± gives the expanded uncertainty stated by the source.

What was measured:
[1] = xn = mol fraction of the nth substance listed; conditions: 100 kPa, Liquid, x1 = 1; for speed of sound: Frequency=3 MHz, Sing-around technique in a fixed-path interferometer; for mass density: Vibrating tube method
[2] = refractive index (Na D-line) (dimensionless); xn = mol fraction of the nth substance listed; conditions: 100 kPa, Liquid, Standard Abbe refractometry, x1 = 1
[3] = 100 kPa, Liquid; for speed of sound: Frequency=3 MHz, Sing-around technique in a fixed-path interferometer; for mass density: Vibrating tube method
[4] = refractive index (Na D-line) (dimensionless); conditions: 100 kPa, Liquid, Standard Abbe refractometry

## CCCCn1cc[n+](C)c1.F[B-](F)(F)F [1-butyl-3-methylimidazolium tetrafluoroborate] + CCCCCCCCN1CCCC1=O
[1]; 298.15 K
  speed of sound: 1565.1 ± 6.1 m/s
  mass density: 1198.78 ± 1.1 kg/m3
[1]; 303.15 K
  speed of sound: 1553.2 ± 6.1 m/s
  mass density: 1195.18 ± 1.1 kg/m3
[1]; 308.15 K
  speed of sound: 1541.3 ± 6.1 m/s
  mass density: 1191.6 ± 1.1 kg/m3
[1]; 313.15 K
  speed of sound: 1529.7 ± 6.1 m/s
  mass density: 1188.04 ± 1.1 kg/m3
[1]; 318.15 K
  speed of sound: 1518.2 ± 6.1 m/s
  mass density: 1184.5 ± 1.1 kg/m3
[1]; 323.15 K
  speed of sound: 1506.8 ± 6.1 m/s
  mass density: 1180.98 ± 1.1 kg/m3
[2]; 298.15 K
  refractive index: 1.42058 ± 0.00087
[2]; 303.15 K
  refractive index: 1.41913 ± 0.00087
[2]; 308.15 K
  refractive index: 1.41764 ± 0.00087
[2]; 313.15 K
  refractive index: 1.41621 ± 0.00087
[2]; 318.15 K
  refractive index: 1.41472 ± 0.00087
[2]; 323.15 K
  refractive index: 1.4133 ± 0.00087

## CCCCCCCCN1CCCC1=O [N-octyl-2-pyrrolidone]
[3]; 298.15 K
  speed of sound: 1450.2 ± 6.1 m/s
  mass density: 918.45 ± 1 kg/m3
[3]; 303.15 K
  speed of sound: 1432.6 ± 6.1 m/s
  mass density: 914.8 ± 1 kg/m3
[3]; 308.15 K
  speed of sound: 1415.3 ± 6.1 m/s
  mass density: 911.14 ± 1 kg/m3
[3]; 313.15 K
  speed of sound: 1398 ± 6.1 m/s
  mass density: 907.49 ± 1 kg/m3
[3]; 318.15 K
  speed of sound: 1380.9 ± 6.1 m/s
  mass density: 903.83 ± 1 kg/m3
[3]; 323.15 K
  speed of sound: 1364 ± 6.1 m/s
  mass density: 900.17 ± 1 kg/m3
[4]; 298.15 K
  refractive index: 1.46346 ± 0.00086
[4]; 303.15 K
  refractive index: 1.46152 ± 0.00086
[4]; 308.15 K
  refractive index: 1.45955 ± 0.00086
[4]; 313.15 K
  refractive index: 1.45761 ± 0.00086
[4]; 318.15 K
  refractive index: 1.45564 ± 0.00086
[4]; 323.15 K
  refractive index: 1.45367 ± 0.00086
